The text below walks through data of ChEMBL document CHEMBL4184266, “Bacicyclin, a new antibacterial cyclic hexapeptide from Bacillus sp. strain BC028 isolated from Mytilus edulis” (Bioorg Med Chem Lett, 2018).

The structures appear in SMILES notation. In brackets after ≈: the same amount, converted by molar mass. Activity calls are given as the source filed them.

The test system of one data set is Staphylococcus aureus. Put plainly: Antibacterial activity against Staphylococcus aureus NCTC 8325 assessed as inhibition of bacterial growth incubated for 18 hrs by […]. Type of data set: functional. To be noted: NCTC 8325, 18 h. For orientation: An ELISA detects its analyte on a solid surface through an enzyme-linked reagent.
For the next data set, the system named is Enterococcus faecalis. In words: Antibacterial activity against Enterococcus faecalis JH212 assessed as inhibition of bacterial growth incubated for 18 hrs by […]. To be noted: JH212, 18 h. The format is functional.
Data set [1] can be described thus: Cytotoxicity against mouse J774.1 cells incubated for 24 hrs and measured 48 and 72 hrs post dye addition by Alamar blue dye based assay. Type of data set: cell-based. A general note: Alamar Blue is a resazurin reagent that responds to reducing activity.
For the next data set, the system named is Pseudomonas aeruginosa. In words: Antibacterial activity against Pseudomonas aeruginosa isolate number 3 assessed as inhibition of bacterial growth incubated for 18 hrs by […]. The format is functional, organism-based.
A further data set has as its system Escherichia coli. In words: Antibacterial activity against Escherichia coli 536 assessed as inhibition of bacterial growth incubated for 18 hrs by […]. The format is functional, organism-based.
Data set [2] has as its system Staphylococcus epidermidis. In words: Antibacterial activity against Staphylococcus epidermidis RP62A assessed as inhibition of bacterial growth incubated for 18 hrs by […]. The format is functional, organism-based.
A further data set deals with Enterococcus faecium. In words: Antibacterial activity against Enterococcus faecium 6413 assessed as inhibition of bacterial growth incubated for 18 hrs by […]. Type of data set: functional, organism-based.

In the case of `CN[C@@H]1[C@H](O[C@H]2[C@H](O[C@H]3[C@H](O)[C@@H](O)[C@H](N=C(N)N)[C@@H](O)[C@@H]3N=C(N)N)O[C@@H](C)[C@]2(O)C=O)O[C@@H](CO)[C@H](O)[C@H]1O` [STREPTOMYCIN], the MIC (as a rule, the smallest concentration in the dilution series that meets the test's criterion for growth inhibition) in the data set on Staphylococcus aureus stood at 2.09 µM (≈ 1.22 µg/mL); in the data set on Enterococcus faecalis, 5.24 µM (≈ 3.05 µg/mL).
Regarding `CC[C@H](C)[C@@H]1NC(=O)[C@H](C(C)C)NC(=O)[C@H](CC(C)C)NC(=O)CNC(=O)[C@@H](Cc2ccccc2)NC(=O)[C@@H](C)NC1=O` [listing 1 of 2 here], the CC50 (usually the concentration giving 50% cytotoxicity) at 24 h in data set [1] was greater than 200 µM.
`CC[C@H](C)[C@@H]1NC(=O)[C@@H](C)NC(=O)[C@@H](Cc2ccccc2)NC(=O)CNC(=O)[C@H](CC(C)C)NC(=O)[C@H](C(C)C)NC1=O`: the “growth inhibition (GI)” value (with Pseudomonas aeruginosa; in the data set with Escherichia coli; in data set [2]; in the data set on Enterococcus faecium) was “inactive” in each case.
With `CC[C@H](C)[C@@H]1NC(=O)[C@H](C(C)C)NC(=O)[C@H](CC(C)C)NC(=O)CNC(=O)[C@@H](Cc2ccccc2)NC(=O)[C@@H](C)NC1=O` [listing 2 of 2 here], the MIC in the data set on Staphylococcus aureus was 12 µM (≈ 7.21 µg/mL); with Enterococcus faecalis it was 8 µM (≈ 4.81 µg/mL).
